Data as given in patent US8853129B2 (Dow AgroSciences, LLC., priority 2010, dated 2014).

Key:
Assay in all cases: Herbicidal activity of mixtures under field conditions, residual weed control in grape crop
Assay type in all cases: in vivo
[1] = system: black nightshade (Solanum nigrum; SOLNI); details: France, glyphosate tank mixed
Protocol: (§1) Trials were conducted under field conditions in France. Trial sites were located in commercially grown European grape crop (Vitis vinifera). The grapes were grown using normal cultural practices for fertilization, seeding, and maintenance to ensure good growth of the crop and the weeds. The trials were conducted using normal research methodology. Trial plots were between 2 to 4.5 meters (m) wide by 5.5 to 10 m long. […] The trial sites had naturally occurring populations of weeds. The weed spectrum included, but was not limited to, black nightshade (Solanum nigrum; SOLNI), common lambsquarter (Chenopodium album; CHEAL), common groundsel (Senecio vulgaris; SENVU), round-leaved […] spuria; KICSP) and common purslane (Portulaca olerace; POROL). […] Glyphosate was tank mixed with all treatments to provide complete foliar control of all weeds so that the residual weed control after application could be evaluated. The application volumes were between 150-325 liters per hectare (L/ha) of water. All application were made using precision gas hand sprayers using a 2 or 3 m boom using flat fan (80° or 110°) nozzles to broadcast the treatments on the soil. The treated plots and control plots were rated blind at various intervals after application. […] Data were collected for all trials and analyzed using various statistical methods. Colby's equation was used to determine the herbicidal effects expected from the mixtures (Colby, S. R. Calculation of the synergistic and antagonistic response of herbicide combinations. Weeds 1967, 15, 20-22). […] A=observed efficacy of active ingredient A at the same concentration as used in the mixture; B=observed efficacy of active ingredient B at the same concentration as used in the mixture.

[2] = system: common groundsel (Senecio vulgaris; SENVU); details: penoxsulam 7 g ai/ha; 103 days after application, Fronton, France; glyphosate tank mixed
Protocol: as §1

[3] = system: common lambsquarter (Chenopodium album; CHEAL); details: penoxsulam 7 g ai/ha; 109 DAA, Fronton, France; glyphosate tank mixed
Protocol: as §1

[4] = system: common purslane (Portulaca oleracea; POROL); details: penoxsulam 7 g ai/ha; 103 days after application, Fronton, France; glyphosate tank mixed
Protocol: as §1

[5] = system: round-leaved fluellen (Kickxia spuria; KICSP); details: penoxsulam 7 g ai/ha; 103 days after application, Fronton, France; glyphosate tank mixed
Protocol: as §1

With `COc1cnc(OC)n2nc(NS(=O)(=O)c3c(OCC(F)F)cccc3C(F)(F)F)nc12` [Penoxsulam] the “Percent Control SOLNI (1) Ob” value ([1]; penoxsulam 5.6 g ai/ha, 56 DAA, Bourdic) was 78%, the “Percent Control SOLNI (2) Ob” value ([1]; penoxsulam 7 g ai/ha, 68 DAA, Eshallat) was 17% and the “Percent Control SENVU Ob” value [2] was 27%. For the same molecule, the “Percent Control CHEAL Ob” value [3] was 13%, the “Percent Control POROL Ob” value [4] was 0% and the “Percent Control KICSP Ob” value [5] was 0%.
